Drawing on patent US8808702B2, “Sulfide, sulfoxide and sulfone chalcone analogues, derivatives thereof and therapeutic uses thereof” (Temple University-of the Commonwealth System of Higher …, priority 2006, dated 2014), this text covers IC50 for 53 compounds.

The subject of assay [1] is K562 (chronic myelogenous leukaemia). The assay can be described thus: Effect of compounds on tumor cell lines (assay of Latham et al.), K562. The format is cell-based. As to conditions: K562 cells, 96 hours after treatment, 1 μM to 100 μM; read-out: K 562 potency (IC50). In short, it runs like this:
(§1)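 After 96 h of exposure to compound (1–100 μM in DMSO; one compound at 0.1–100 μM), effects were scored by inverted-microscope inspection, with trypan blue viable counts by hemacytometer when required. Cells were seeded at 2.5×10^4 per well and dosed 24 h after plating.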

Assay [2] concerns DU145 (prostate cancer). The assay can be described thus: Effect of compounds on tumor cell lines (assay of Latham et al.), DU145. In kind it is cell-based. As to conditions: DU145 cells, 96 hours after treatment, 1 μM to 100 μM; read-out: DU 145 potency (IC50). The method in brief:
as §1

As a reminder, the IC50 is the concentration that gives 50% inhibition. In the case of `O=C(O)c1ccc(C(=O)C(=Cc2ccc(Cl)c([N+](=O)[O-])c2)SCc2ccc(F)cc2)cc1` [Example 255], the values for the IC50 in assay [1] and in assay [2] were at most 1 µM and 1 to 10 µM, respectively.

Consider `O=C(C(=Cc1ccc(Cl)cc1)SCc1ccc(F)cc1)c1ccc(Cl)cc1` [Example 256], for which the IC50 in assay [1] lay within 1 to 10 µM; in assay [2], 10 to 25 µM.

Take `CCOc1ccc(C=C(SCc2ccc(F)cc2)C(=O)c2ccc(Br)cc2)cc1OC` [Example 257]: the IC50 fell in the range of 1 to 10 µM in assay [1] and 50 to 100 µM in assay [2].

In the case of `O=C(C(=Cc1ccc(F)cc1C(F)(F)F)SCc1ccc(F)cc1)c1ccc(Br)cc1` [Example 260], the 50% inhibitory concentration (IC50) in assay [1] and in assay [2] was 10 to 25 µM in each case.

As for `O=C(O)c1ccc(C(=O)C(=Cc2ccc(O)c([N+](=O)[O-])c2)SCc2ccc(F)cc2)cc1` [Example 262], the half-inhibitory concentration (IC50) in assay [1] was 50 to 100 µM; in assay [2] it was above 100 µM.

In the case of `COc1ccc(C=C(SCc2ccc(F)cc2)C(=O)c2ccc(Br)cc2)cc1` [Example 265], the IC50 in assay [1] is 1 to 10 µM; in assay [2] it was 25 to 50 µM.

As to `O=C(C(=Cc1c[nH]c2ccc(Cl)cc12)SCc1ccc(F)cc1)c1ccc(Br)cc1` [Example 267], the IC50 in assay [1] and in assay [2] was 1 to 10 µM throughout.

Regarding `Cc1ccc(CSC(=Cc2ccc(O)c(O)c2O)C(=O)c2ccc(Cl)cc2)cc1` [Example 270], the concentration for half-maximal inhibition (IC50) in assay [1] and in assay [2] was 50 to 100 µM each time.

Turning to `Cc1ccc(CSC(=Cc2cccc(Cl)c2Cl)C(=O)c2ccc(Cl)cc2)cc1` [Example 271], the IC50 in assay [1] and in assay [2] was 25 to 50 µM each time.

Take `Cc1ccc(CSC(=Cc2c(O)cc(O)cc2O)C(=O)c2ccc(Cl)cc2)cc1` [Example 272]: the half-inhibitory concentration (IC50) in assay [1] and in assay [2] was 50 to 100 µM each time.

`Cc1ccc(CSC(=Cc2cc(C)ccc2C)C(=O)c2ccc(Cl)cc2)cc1` [Example 273]: the IC50 in assay [1] and in assay [2] was 10 to 25 µM throughout.

For the compound `Cc1ccc(CSC(=Cc2ccccc2OCc2ccccc2)C(=O)c2ccc(Cl)cc2)cc1` [Example 274], the IC50 in assay [1] and in assay [2] was 1 to 10 µM in each case.

With `Cc1ccc(CSC(=Cc2cc([N+](=O)[O-])ccc2F)C(=O)c2ccc(Cl)cc2)cc1` [Example 276], the concentration for half-maximal inhibition (IC50) in assay [1] and in assay [2] was 1 to 10 µM in each case.

In the case of `Cc1ccc(CSC(=Cc2ccccc2F)C(=O)c2ccc(Br)cc2)cc1` [Example 277], the IC50 fell in the range of 1 to 10 µM in assay [1] and 10 to 25 µM in assay [2].

Regarding `COc1ccccc1C=C(SCc1ccc(C)cc1)C(=O)c1ccc(Cl)cc1` [Example 279], the IC50 in assay [1] and in assay [2] was 10 to 25 µM in each case.

On to `Cc1ccc(CSC(=Cc2ccc[nH]2)C(=O)c2ccc(Cl)cc2)cc1` [Example 280], for which the IC50 fell in the range of 1 to 10 µM in assay [1] and 25 to 50 µM in assay [2].

As for `Cc1ccc(CSC(=Cc2cc(Cl)cc(Cl)c2)C(=O)c2ccc(Cl)cc2)cc1` [Example 281], the IC50 in assay [1] and in assay [2] was 10 to 25 µM each time.

As for `Cc1ccc(CSC(=Cc2sccc2C)C(=O)c2ccc(Cl)cc2)cc1` [Example 283], the IC50 in assay [1] and in assay [2] was 10 to 25 µM each time.

Turning to `CCN(CC)CCNC(=O)c1c(C)[nH]c(C=C(SCc2ccc(C)cc2)C(=O)c2ccc(C(=O)O)cc2)c1C` [Example 284], the half-inhibitory concentration (IC50) in assay [1] and in assay [2] was 50 to 100 µM throughout.

Turning to `Cc1ccc(CSC(=Cc2ccc(N(C)C)cc2)C(=O)c2ccc(Cl)cc2)cc1` [Example 285], the IC50 in assay [1] and in assay [2] was 10 to 25 µM throughout.

In the case of `Cc1ccc(CSC(=Cc2ccc(Br)cc2)C(=O)c2ccc(Cl)cc2)cc1` [Example 286], the results for the IC50 in assay [1] and in assay [2] were 1 to 10 µM and 10 to 25 µM, respectively.

Regarding `Cc1ccc(CSC(=Cc2ccc(Cl)c([N+](=O)[O-])c2)C(=O)c2ccc(C(=O)O)cc2)cc1` [Example 287], the results for the IC50 in assay [1] and in assay [2] were at most 1 µM and 1 to 10 µM, respectively.

In the case of `Cc1ccc(CSC(=Cc2ccc(Cl)cc2)C(=O)c2ccc(Cl)cc2)cc1` [Example 288], the IC50 in assay [1] lay in the range of 1 to 10 µM; in assay [2] it was 10 to 25 µM.

For `CCOc1ccc(C=C(SCc2ccc(C)cc2)C(=O)c2ccc(Cl)cc2)cc1OC` [Example 289], the 50% inhibitory concentration (IC50) in assay [1] and in assay [2] was 25 to 50 µM in each case.

For `Cc1ccc(CSC(=Cc2ccc(F)cc2C(F)(F)F)C(=O)c2ccc(Cl)cc2)cc1` [Example 290], the IC50 in assay [1] and in assay [2] was 50 to 100 µM in each case.

On to `Cc1ccc(CSC(=Cc2ccc(F)c(C)c2)C(=O)c2ccc(Cl)cc2)cc1` [Example 291], for which the IC50 in assay [1] fell in the range of 10 to 25 µM; in assay [2] it was 25 to 50 µM.

`Cc1ccc(CSC(=Cc2ccc(O)cc2)C(=O)c2ccc(Cl)cc2)cc1` [Example 292]: the IC50 in assay [1] lay in the range of 1 to 10 µM; in assay [2], 10 to 25 µM.

For the compound `CSc1ccc(C=C(SCc2ccc(C)cc2)C(=O)c2ccc(Br)cc2)cc1` [Example 293], the IC50 in assay [1] is 25 to 50 µM; in assay [2], above 100 µM.

`CSc1ccc(C=C(SCc2ccc(C)cc2)C(=O)c2ccc(Cl)cc2)cc1` [Example 294]: the concentration for half-maximal inhibition (IC50) lay in the range of 10 to 25 µM in assay [1] and 25 to 50 µM in assay [2].

In the case of `Cc1ccc(CSC(=Cc2c[nH]c3ccc(Br)cc23)C(=O)c2ccc(Cl)cc2)cc1` [Example 295], the IC50 in assay [1] and in assay [2] was 1 to 10 µM throughout.

Regarding `Cc1ccc(CSC(=Cc2c[nH]c3ccc(Cl)cc23)C(=O)c2ccc(Cl)cc2)cc1` [Example 296], the IC50 in assay [1] and in assay [2] was 1 to 10 µM throughout.

Turning to `Cc1ccc(CSC(=Cc2ccc(C)s2)C(=O)c2ccc(Cl)cc2)cc1` [Example 298], the IC50 in assay [1] and in assay [2] was 50 to 100 µM each time.

On to `O=C(O)c1ccc(C(=O)C(=Cc2ccc(Br)c([N+](=O)[O-])c2)SCc2ccc(Cl)cc2Cl)cc1` [Example 299], for which the half-inhibitory concentration (IC50) was at most 1 µM in assay [1] and 1 to 10 µM in assay [2].

`O=C(O)c1ccc(C(=O)C(=Cc2ccc(Cl)c([N+](=O)[O-])c2)SCc2ccc(Cl)cc2Cl)cc1` [Example 300]: the IC50 in assay [1] is at most 1 µM; in assay [2], 1 to 10 µM.

`O=C(O)c1ccc(C(=O)C(=Cc2ccc(F)c([N+](=O)[O-])c2)SCc2ccc(Cl)cc2Cl)cc1` [Example 301]: the IC50 is at most 1 µM in assay [1] and 1 to 10 µM in assay [2].

Consider `O=C(O)c1ccc(C(=O)C(=Cc2ccc(Br)c([N+](=O)[O-])c2)SCc2ccccc2Cl)cc1` [Example 302], for which the IC50 in assay [1] and in assay [2] was 1 to 10 µM in each case.

For `O=C(O)c1ccc(C(=O)C(=Cc2ccc(F)c([N+](=O)[O-])c2)SCc2ccccc2Cl)cc1` [Example 303], the IC50 in assay [1] and in assay [2] was 1 to 10 µM throughout.

Regarding `O=C(O)c1ccc(C(=O)C(=Cc2ccc(Cl)c([N+](=O)[O-])c2)SCc2ccccc2F)cc1` [Example 304], the IC50 in assay [1] was at most 1 µM; in assay [2] it was 1 to 10 µM.

As to `COc1cc(OC)c(OC)cc1C=C(SCc1ccc(Br)cc1)C(=O)c1ccc([N+](=O)[O-])cc1` [Example 305], the IC50 in assay [1] and in assay [2] was 10 to 25 µM each time.

As to `O=C(O)c1ccc(C(=O)C(=Cc2ccccc2F)SCc2ccc(Br)cc2)cc1` [Example 306], the IC50 in assay [1] and in assay [2] was 10 to 25 µM each time.

`CC1=CC(=O)C(C)=C(C(C)(C)CC(=O)Oc2cc(C=C(SCc3ccc(Br)cc3)C(=O)c3ccc(Br)cc3)ccc2[N+](=O)[O-])C1=O` [Example 307]: the half-inhibitory concentration (IC50) in assay [1] and in assay [2] was 1 to 10 µM throughout.

On to `CN1CCN(c2ccc(C=C(SCc3ccc(Br)cc3)C(=O)c3ccc(C(=O)O)cc3)cc2[N+](=O)[O-])CC1` [Example 308], for which the IC50 in assay [1] is 1 to 10 µM; in assay [2] it was 10 to 25 µM.

For the compound `CCOC(=O)c1c(C)[nH]c(C=C(SCc2ccc(Br)cc2)C(=O)c2ccc(SCc3ccc(Br)cc3)c([N+](=O)[O-])c2)c1C` [Example 309], the IC50 in assay [1] and in assay [2] was above 100 µM throughout.

On to `O=C(C(=Cc1ccc(F)c([N+](=O)[O-])c1)SCc1ccc(Br)cc1)c1c(F)c(F)c(F)c(F)c1F` [Example 310], for which the IC50 in assay [1] and in assay [2] was 1 to 10 µM throughout.

As to `CN1CCN(CCNC(=O)c2ccc(C(=O)C(=Cc3ccc(F)c([N+](=O)[O-])c3)SCc3ccc(Br)cc3)cc2)CC1` [Example 311], the IC50 in assay [1] was at most 1 µM; in assay [2], 1 to 10 µM.

`O=C(NCCN1CCOCC1)c1ccc(C(=O)C(=Cc2ccc(F)c([N+](=O)[O-])c2)SCc2ccc(Br)cc2)cc1` [Example 312]: the IC50 in assay [1] and in assay [2] was 1 to 10 µM each time.

On to `CCN(CC)CCNC(=O)c1ccc(C(=O)C(=Cc2ccc(F)c([N+](=O)[O-])c2)SCc2ccc(Br)cc2)cc1` [Example 313], for which the IC50 in assay [1] is at most 1 µM; in assay [2], 1 to 10 µM.

`CN1CCN(CCCNC(=O)c2ccc(C(=O)C(=Cc3ccc(F)c([N+](=O)[O-])c3)SCc3ccc(Br)cc3)cc2)CC1` [Example 314]: the IC50 in assay [1] and in assay [2] was 1 to 10 µM each time.

Turning to `O=C(C(=Cc1ccc(F)c([N+](=O)[O-])c1)SCc1ccc(Br)cc1)c1ccc(C(=O)N2CCN(c3ccc(C(F)(F)F)cn3)CC2)cc1` [Example 315], the concentration for half-maximal inhibition (IC50) in assay [1] and in assay [2] was 1 to 10 µM in each case.

Turning to `O=C(C(=Cc1ccc(F)c([N+](=O)[O-])c1)SCc1ccc(Br)cc1)c1ccc(C(=O)N2CCN(CCO)CC2)cc1` [Example 316], the IC50 in assay [1] and in assay [2] was at most 1 µM throughout.

Consider `O=C(C(=Cc1ccc(F)c([N+](=O)[O-])c1)SCc1ccc(Br)cc1)c1ccc(Cl)c([N+](=O)[O-])c1` [Example 317], for which the IC50 in assay [1] and in assay [2] was above 100 µM each time.

In the case of `O=C(C(=Cc1ccc(F)c([N+](=O)[O-])c1)SCc1ccc(Br)cc1)c1ccc(F)cc1` [Example 318], the IC50 in assay [1] and in assay [2] was at most 1 µM in each case.

Turning to `O=C(C(=Cc1ccc(F)cc1)SCc1ccc(Br)cc1)c1ccc(SCc2ccc(Br)cc2)c([N+](=O)[O-])c1` [Example 319], the IC50 in assay [1] and in assay [2] was above 100 µM in each case.
